Several values for one entry are separate records, joined by “and”; a condition that tells them apart may be missing. Equal entries are not always repeated.

Format in all cases: cell-based
The subject of series [1] is human TC28a2 chondrocyte cells. Put plainly: SA-β-Gal activity by FDG flow cytometry in TC28a2 cells exposed to IL-6 or etoposide. As to conditions: Basal = 1. In general terms: Flow cytometry measures light scatter and fluorescence of single cells or particles in a stream.
Protocol: The immortalized human juvenile chondrocyte cell line T/C28a2 (25), was used in some experiments.
(§1) Cells were plated at a density of 5×10^4 cells/well in Corning® CellBIND® multiwell 96 plates (MW 96) (Corning, NY, USA) or 1.8×10^5 cells/well in MW 12 plates (Corning, NY, USA) for analysis. Cells were left to equilibrate overnight in DMEM at 5% or 2% of FBS in 5% CO2 at 37° C.
(§2) The effect of APPA on number of senescent cells was therefore evaluated by the quantification of β-galactosidase activity using flow cytometry. β-galactosidase activity was detected using fluorescein di-β-D-galactopyranoside (FDG; Thermo Fisher, Waltham, MA, USA) by flow cytometry. Non-fluorescent FDG is sequentially hydrolysed by β-galactosidase, first to fluorescein monogalactoside and then to highly fluorescent fluorescein. Enzyme-mediated hydrolysis of FDG can be followed by the increase in fluorescence.
These conditions were evaluated with and without 10 μg/ml APPA for 24 h. […] At the end of incubation, cultures were washed with PBS, resuspended by trypsinization and analysed immediately using a FACScalibour flow cytometer (Becton Dickinson). Data were acquired and analysed with Cellquest software (Becton Dickinson). Each fluorescein signal was measured on an FL1 detector and β-galactosidase activity was estimated using the median fluorescence intensity (arbitrary units) of the cell population.
In series [2] the test system is primary human chondrocytes. Put plainly: SA-β-Gal levels by FDG flow cytometry in primary chondrocytes exposed to etoposide and OSM. As to conditions: for SA-β-Gal level (Mean ± SEM): Eto-20 μM + OSM = 1; for effect on SA-β-Gal levels, in words: Eto + OSM, AP 2.3 and 10 μg/ml, PA 7.7 and 10 μg/ml individually (FIG. 7b).
Description: Chondrocytes from human OA hip cartilage, were isolated as described in (Maneiro E, Martin M A, de Andres M C, López-Armada M J, Fernandez-Sueiro J L, del Hoyo P, et al. Mitochondrial respiratory activity is altered in osteoarthritic human articular chondrocytes. Arthritis and rheumatism. 2003; 48 (3): 700-8)) from 18 patients from total hip arthroplasty (5 male and 13 female patients with a mean±SD age of 86±7.17, 79.71±13.56 years respectively)
Human articular chondrocytes and T/C28a2 cell line, were equilibrated overnight in Dulbecco's Modified Eagle Medium (DMEM) (Gibco, Grand Island, NY, USA) supplemented with 10% fetal bovine serum (FBS), penicillin (100 U/ml) and streptomycin (100 μg/ml) (Gibco) in a humidified 5% CO2 atmosphere at 37° C.
as §1, §2
These conditions were evaluated with and without 10 μg/ml APPA for 24 h. Fluorescein di-β-D-galactopyranoside (10 µM) was then added to the pretreatment medium. At the end of incubation, cultures were washed with PBS, resuspended by trypsinization and analysed immediately using a FACScalibour flow cytometer (Becton Dickinson). Data were acquired and analysed with Cellquest software (Becton Dickinson). Each fluorescein signal was measured on an FL1 detector and β-galactosidase activity was estimated using the median fluorescence intensity (arbitrary units) of the cell population.
The subject of series [3] is human TC28a2 chondrocyte cells. The experiment in a line: DRAQ7 chondrocyte viability assay (flow cytometry). As to conditions: 24 h. How it is done:
A novel cell viability assay uses DRAQ7, a marker of apoptosis, necrosis and dead cells. DRAQ7 stains the nuclei in dead and permeabilised cells but not in intact live cells.
To determine the effects of APPA (10 μg/ml) AP (2.3 and 10 μg/ml) and PA (7.7 and 10 μg/ml) on chondrocyte viability, an assay based on DRAQ7™ (Thermo Fisher Scientific) was used. DRAQ7™ is a dye that can be used to show apoptosis, necrosis and dead cells, and the assay includes staining of nuclei in dead and permeabilised cells but not staining of intact live cells.
For the assay, cells were grown in flasks due to higher number of cells required. Following 24 h of different treatments, cells were trypsinised and centrifuged at 1500 rpm for 10 minutes (min). The harvested cells were suspended in 3 µM of the fluorescent dye DRAQ7™ (Thermo Fisher) and incubated in the dark, at room temperature (rt) for 10 min. The samples were run on CytoFLex flow cytometer (Beckman Coulter Inc. Ca, USA). At least 1×10^4 cells per assay were measured. Data were analysed using CyExpert V 2.5 software (Beckman Coulter Inc). […] To establish the position of DRAQ7− and DRAQ7+ gates, one of each negative and positive control was stained with DRAQ7 dye and the other with PBS alone (data not shown).

Series [4] concerns CDKN1A (p21). The experiment in a line: CDKN1A (p21) relative mRNA expression by RT-PCR. As to conditions: primary human chondrocytes. The text has this: CDKN1 (p21) is a genetic marker for cell senescence that codes for cyclin dependent kinase inhibitor 1A, a regulator of cell cycle progression. The expression of this gene is tightly controlled by the tumor suppressor protein p53. Activated p53 increases the expression of p21 which contributes to senescence. […] Cell-cycle arrest due to an increase in expression of genes that inhibit proliferation, the changes that occur in senescent cells can also result in the increased production of cytokines, growth factors, and matrix metalloproteinase (Loeser R F. Aging and osteoarthritis: the role of chondrocyte senescence and aging changes in the cartilage matrix. Osteoarthritis Cartilage. 2009 August; 17 (8): 971-9). Relative mRNA expression levels of CDKN1 were detected by quantitative real-time (RT)-PCR in presence of positive stimuli +/−10 μg/ml APPA. Data were obtained from eight independent donors. Values are presented as mean±SEM and analyzed by Mann Whitney test (*p≤0.05). RNA extraction was achieved using TRIzol® (Sigma-Aldrich), following the manufacturer's protocol. 0.5 μg of RNA was reversely transcribed into cDNA using Super Script VILO (Thermofisher Scientific, Waltham, Massachusetts, USA) following the manufacturer's instructions. RT-PCR was developed in a LightCycler 480-II Instrument (Roche, Mannheim, Germany) using TaqMan Universal Master Mix (Roche). Analysis of the results was carried out using Qbase+ version 2.5 software (Biogazelle, Ghent, Belgium). Gene expression was calculated relative to the housekeeping gene Glyceraldehyde-3-Phosphate Dehydrogenase (GAPDH). Relative mRNA expression levels of cyclin dependent kinase inhibitor 1A (CDKN1) were detected by quantitative real-time (RT)-PCR in the same manner as above. Data were obtained from six independent donors.

The test system of series [5] is BECN-1. The experiment in a line: BECN-1 gene expression by RT-PCR. As to conditions: primary human chondrocytes; Eto + OSM + PA 7.7 μg/ml (FIG. 7d). How it is done:
RNA extraction was achieved using TRIzol® (Sigma-Aldrich), following the manufacturer's protocol. 0.5 μg of RNA was reversely transcribed into cDNA using Super Script VILO (Thermofisher Scientific, Waltham, Massachusetts, USA) following the manufacturer's instructions. RT-PCR was developed in a LightCycler 480-II Instrument (Roche, Mannheim, Germany) using TaqMan Universal Master Mix (Roche). Analysis of the results was carried out using Qbase+ version 2.5 software (Biogazelle, Ghent, Belgium). Gene expression was calculated relative to the housekeeping gene Glyceraldehyde-3-Phosphate Dehydrogenase (GAPDH). […] BECN-1 is a regulator of autophagy; the encoded protein, Beclin1, is a component of the phosphatidylinositol-3-kinase (PI3K) complex which mediates vesicle-trafficking processes. Autophagy is a self-degradative process that is important for balancing sources of energy at critical times during development and in response to cell stress. Although autophagy is not a type of cell death, it is important for cartilage homeostasis. […]

As to `COc1cc(C(C)=O)ccc1O` [AP, 4-hydroxy-3-methoxyacetophenone], the “SA-β-Gal level (Mean ± SEM)” value in series [1] (Eto-5 μM + AP 2.3 μg/ml) was determined as 0.9191; in series [1] (Eto-5 μM + AP 10 μg/ml), 0.8948; in series [2] (Eto + OSM + AP-2.3 μg/ml), 0.9947; in series [2] (Eto + OSM + AP-10 μg/ml), 1.01. The “effect on SA-β-Gal levels, in words” value in series [2] is reported as “no significant effects”. The “percentage of (non-viable) cells positive for DRAQ7” value in series [3] (human, 10 μg/ml) is given as 5.05%. For the same compound, the “expression level of CDKN1A (p21) (Mean ± SEM)” value in series [4] (Eto 20 μM + OSM 10 ng/ml + AP 2.3 μg/ml) turned out to be 1.0102 ± 0.25; in series [4] (Eto 20 μM + OSM 10 ng/ml + AP 10 μg/ml), 1.617 ± 0.32. Further, in series [4] (Eto + OSM, AP at 2.3 and 10 μg/ml), the “effect on CDKN1A (p21) expression, in words” value is given as “neither concentration of AP nor PA 7.7 μg/ml had any significant effect”.

`COc1ccc(C(C)=O)c(O)c1` [PA, 2-hydroxy-4-methoxyacetophenone]: the figures for the “SA-β-Gal level (Mean ± SEM)” value in series [2] (Eto + OSM + PA-7.7 μg/ml) and in series [2] (Eto + OSM + PA-10 μg/ml) were 0.9844 and 0.9622, respectively. Besides, the “effect on SA-β-Gal levels, in words” value in series [2] was “no significant effects”. In addition, in series [3] (TC28a2, APPA 10, AP 2.3 and 10, PA 7.7 and 10 μg/ml), the “effect on cell viability (DRAQ7)” value was “do not affect cell viability”. In addition, the BECN-1 gene expression entry in series [5] is recorded as “significantly counteracted”. Besides, the “expression level of CDKN1A (p21) (Mean ± SEM)” value in series [4] (Eto 20 μM + OSM 10 ng/ml + 10 μg/ml (PA 10 μg/ml per text)) is 0.869 ±0.17 and 0.8635 ± 0.17.

For the origin of these results see patent US20260272851A1, “FORMULATION COMPRISING APOCYNIN AND PAEONOL” (AKL Research & Development Ltd, priority 2022, published 2026).
